Measurements published in patent publication US8486946B2, “Pyrazolo [4,3-c] cinnolin-3-one M1 receptor positive allosteric modulators” (Merck Sharp & Dohme Corp., priority 2009, dated 2013).

Biological target: T1, acetylcholine muscarinic M1 receptor (Homo sapiens, UniProt P11229)
T1 construct: expressed in transfected cells; host or cells: CHOnfat (CHO cells; also called CHOK1/hM1)
T1 sequence (P11229 1-460): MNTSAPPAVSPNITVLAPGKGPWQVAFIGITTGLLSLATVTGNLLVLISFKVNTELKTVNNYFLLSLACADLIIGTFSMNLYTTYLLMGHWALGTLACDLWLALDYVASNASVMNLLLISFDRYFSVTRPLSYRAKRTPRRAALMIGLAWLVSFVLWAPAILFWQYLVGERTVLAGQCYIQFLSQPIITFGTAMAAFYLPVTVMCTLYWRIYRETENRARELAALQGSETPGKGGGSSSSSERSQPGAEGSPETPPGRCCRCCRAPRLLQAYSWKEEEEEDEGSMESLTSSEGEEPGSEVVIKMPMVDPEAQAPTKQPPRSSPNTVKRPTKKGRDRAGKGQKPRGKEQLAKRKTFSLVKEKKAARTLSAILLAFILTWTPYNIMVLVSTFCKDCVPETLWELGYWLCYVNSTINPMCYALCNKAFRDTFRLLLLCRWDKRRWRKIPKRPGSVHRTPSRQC
Assay: Muscarinic FLIPR intracellular calcium assay for M1 positive allosteric modulator activity in CHOnfat/hM1 cells
Format: cell-based
Details: 4 min preincubation, then EC20 acetylcholine (3 nM final), calculated from FLIPR values, read-out: IP Value (inflection point)
Method: The assay studies the effect of one or several concentrations of test compounds on basal or acetylcholine-stimulated Ca^2+ levels using FLIPR.
Compounds are prepared and subjected to a preincubation period of 4 min. Thereafter, a single EC20 concentration of acetylcholine is added to each well (3 nM final). The intracellular Ca^2+ level of each sample is measured and compared to an acetylcholine control to determine any modulatory activity.
Cells: CHOnfat/hM1, hM2, hM3 or hM4 cells are plated 24 hr before the assay at a density of 18,000 cells/well (100 μL) in a 384 well plate. CHOnfat/hM1 and CHOnfat/hM3 Growth Medium: 90% DMEM (Hi Glucose); 10% HI FBS; 2 mM L-glutamine; 0.1 mM NEAA; Pen-Strep; and 1 mg/ml Geneticin, are added. For M2Gqi5CHOnfat and M4Gqi5CHOnfat cells, an additional 600 ug/ml hygromycin is added.
Equipment: 384 well plate, 120 μL addition plate; 96-well Whatman 2 ml Uniplate Incubator, 37° C., 5% CO2; Skatron EMBLA-384 Plate Washer; Multimek Pipetting System; Genesis Freedom 200 System; Mosquito System; Temo Nanoliter Pipetting System; and FLIPR^384 Fluorometric Imaging Plate Reader System are used.
Buffers. Assay Buffer: Hanks Balanced Salt Solution, with 20 mM Hepes, 2.5 mM Probenecid (Sigma P-8761) first dissolved in 1 N NaOH, 1% Bovine Serum Albumin (Sigma A-9647). Dye Loading Buffer: Assay Buffer plus 1% Fetal Bovine Serum and Fluo-4AM/Pluronic Acid Mixture. 2 mM Fluo-4AM ester stock in DMSO (Molecular Probes F-14202) Concentration of 2 μM in buffer for a final concentration of 1 μM in Assay. 20% Pluronic Acid Solution stock, with concentration of 0.04% in Buffer, 0.02% in Assay.
65 μL of 2 mM Fluo-4AM are mixed with 130 μL of 20% Pluronic Acid. The resulting solution and 650 μL FBS is added to the assay buffer for a total volume of 65 mL. Positive Controls: 4-Br-A23187: 10 mM in DMSO; final concentration 10 μM. Acetylcholine: 10 mM in water, working stock at both 20 μM and 30 μM in assay buffer, final concentration of 10 μM. This is used to check the maximum stimulation of the CHOK1/hM1 cells. 20 μM (2×) acetylcholine is added in the preincubation part of the assay, and the 30 μM (3×) stock is added in the second part. (EC20)Acetylcholine: 10 mM in water, working stock of 9 nM (3×), and final concentration in assay is 3 nM. This is used after the preincubation with test compounds. Addition of the EC20 Acetylcholine to each well with a test compound will ascertain any modulator activity. 24 wells contain 3 nM Acetylcholine alone as a control.
Determining Activity of Putative Compounds:
Screening Plate Compounds are titrated in 96-well plates (columns 2-11), 100% DMSO, started at a concentration of 15 mM (150× stock concentration), and 3-fold serial dilutions using Genesis Freedom200 System. Four 96-well plates are combined into a 384-well plate using Mosquito Nanoliter Pipetting System by transferring 1 μl of serial diluted compounds to each well, and 1 mM acetylcholine (100× stock concentration) were added as a control. Using Temo, 49 μl assay buffer is added to each well of the 384-well plate right before assay.
In a 96-well Whatman 2 ml Uniplate, 9 nM Acetylcholine (3×) is pipetted into wells corresponding to the screening compounds, and into control wells. The 30 μM acetylcholine control (3×) is added into control wells, and the 3× agonist plate is transferred into a 384 well plate.
Cells are washed three times with 100 μL of buffer, leaving 30 μL of buffer in each well. Using Multimek, 30 μL of Dye Loading Buffer is added into each well and incubated at 37° C., 5% CO2 for up to one hr.
After 60 min, the cells are washed three times with 100 μL of buffer, leaving 30 μL of buffer in each well. The cell plate, screening plate, and agonist addition plates are placed on the platform in the FLIPR and the door closed. A signal test to check background fluorescence and basal fluorescence signal is performed. Laser intensity is adjusted if necessary. […]

SMILES	EC50
N#Cc1cccc(F)c1-n1nc2c3ccccc3n(Cc3ccc(-n4cccn4)cc3)nc-2c1=O [Example 13, 3-Fluoro-2-(3-oxo-5-{[4-(1H-pyrazol-1-yl)phenyl]methyl}-3,5-dihydro-2H-pyrazolo[4,3-c]cinnolin-2-yl)benzonitrile]	14 nM
Cc1nc(F)ccc1-n1nc2c3ccccc3n(Cc3ccc(-c4cnn(C)c4)nc3)nc-2c1=O [Example 86, 2-(6-Fluoro-2-methylpyridin-3-yl)-5-{[6-(1-methyl-1H-pyrazol-4-yl)pyridin-3-yl]methyl}-2,5-dihydro-3H-pyrazolo[4,3-c]cinnolin-3-one]	225 nM
Cc1ccc(-c2ccc(Cn3nc4c(=O)n(-c5cccc(C)c5C)nc-4c4ccccc43)cn2)cn1 [Example 90, 2-(2,3-Dimethylphenyl)-5-[(6′-methyl-2,3′-bipyridin-5-yl)methyl]-2,5-dihydro-3H-pyrazolo[4,3-c]cinnolin-3-one]	29 nM
C[C@@H]1CCOC[C@@H]1n1nc2c3ccccc3n(Cc3ccc(-n4cccn4)cc3)nc-2c1=O (single isomer, unassigned) [Example 73, cis-2-[4-Methyltetrahydro-2,1-pyran-3-yl]-5-[4-(1H-pyrazol-1-yl)benzyl]-2,5-dihydro-3H-pyrazolo[4,3-c]cinnoline-3-one]	771 nM
Cc1ccccc1-n1nc2c3ccccc3n(Cc3ccc(-c4cnn(C)c4)nc3)nc-2c1=O [Example 25, 2-(2-Methylphenyl)-5-{[6-(1-methyl-1H-pyrazol-4-yl)pyridine-3-yl]methyl}-2,5-dihydro-3H-pyrazolo[4,3-c]cinnolin-3-one]	144 nM
O=c1c2nn(Cc3ccc(-n4cccn4)cc3)c3ccccc3c-2nn1CC(O)CO (centres unmarked) [Example 11, 2-(2,3-Dihydroxypropyl)-5-[4-(1H-pyrazol-1-yl)benzyl]-2,5-dihydro-3H-pyrazolo[4,3-c]cinnolin-3-one]	193 nM
C[C@H]1CCOC[C@@H]1n1nc2c3ccccc3n(Cc3ccc(-n4cccn4)cc3)nc-2c1=O (single isomer, unassigned) [Example 72, trans-2-[4-Methyltetrahydro-2H-pyran-3-yl]-5-[4-(1H-pyrazol-1-yl)benzyl]-2,5-dihydro-3H-pyrazolo[4,3-c]cinnoline-3-one]	47 nM
O=c1c2nn(Cc3ccc(-n4cccn4)cc3)c3c(Cl)cccc3c-2nn1[C@@H]1CCCC[C@H]1O [Example 61]	42 nM
O=c1c2nn(Cc3ccc(-n4cccn4)cc3)c3c(Cl)cccc3c-2nn1[C@H]1CCOC[C@@H]1O (single isomer, unassigned) [Example 63, 6-Chloro-2-(trans-3-hydroxytetrahydro-2H-pyran-4-yl)-5-[4-(1H-pyrazol-1-yl)benzyl]-2,5-dihydro-3H-pyrazolo[4,3-c]cinnolin-3-one]	593 nM
C[C@@H]1CCOC[C@@H]1n1nc2c3ccccc3n(Cc3ccc(-n4cccn4)cc3)nc-2c1=O (single isomer, unassigned) [Example 75, cis-2-[4-Methyltetrahydro-2H-pyran-3-yl]-5-[4-(1H-pyrazol-1-yl)benzyl]-2,5-dihydro-3H-pyrazolo[4,3-c]cinnoline-3-one]	158 nM
O=c1c2nn(Cc3ccc(-n4cccn4)cc3)c3c(Cl)cccc3c-2nn1[C@H]1CCOC[C@@H]1O (single isomer, unassigned) [Example 62, 6-Chloro-2-(trans-3-hydroxytetrahydro-2H-pyran-4-yl)-5-[4-(1H-pyrazol-1-yl)benzyl]-2,5-dihydro-3H-pyrazolo[4,3-c]cinnolin-3-one]	21 nM
Cc1ccccc1-n1nc2c3ccccc3n(Cc3ccc(N4CCOCC4)nc3)nc-2c1=O [Example 81, 2-(2-Methylphenyl)-5-{[6-(morpholin-4-yl)pyridine-3-yl]methyl}-2,5-dihydro-3H-pyrazolo[4,3-c]cinnolin-3-one]	1370 nM
CC1CCOCC1n1nc2c3ccccc3n(Cc3ccc(-n4cccn4)cc3)nc-2c1=O (racemic) [Example 71, (±)-2-[cis,trans-4-methyltetrahydro-2H-pyran-3-yl]-5-[4-(1H-pyrazol-1-yl)benzyl]-2,5-dihydro-3H-pyrazolo[4,3-c]cinnolin-3-one]	89 nM
O=c1c2nn(Cc3ccc(-n4cccn4)cc3)c3ccccc3c-2nn1-c1ccccc1F [Example 1, 2-(2-Fluorophenyl)-5-{[4-(1H-pyrazol-1-yl)phenyl]methyl}-2,5-dihydro-3H-pyrazolo[4,3-c]cinnolin-3-one]	28 nM
Cc1ccccc1-n1nc2c3ccccc3n(Cc3ccc(-n4ccnc4)nc3)nc-2c1=O [Example 23, 5-{[6-(1H-Imidazol-1-yl)pyridine-3-yl]methyl}-2-(2-methylphenyl)-2,5-dihydro-3H-pyrazolo[4,3-c]cinnolin-3-one]	748 nM
Cc1ccccc1-n1nc2c3ccccc3n(Cc3ccc(Br)cn3)nc-2c1=O [Example 21, 5-[(5-Bromopyridin-2-yl)methyl]-2-(2-methylphenyl)-2,5-dihydro-3H-pyrazolo[4,3-c]cinnolin-3-one]	2860 nM
C[C@H]1CCOC[C@@H]1n1nc2c3ccccc3n(Cc3ccc(-n4cccn4)cc3)nc-2c1=O (single isomer, unassigned) [Example 74]	636 nM
